In US5223526A, “Pyrazole carboxanilide fungicides and use” (Monsanto Company, priority 1992, dated 1993):

Legend:
[1] = tested on: Rhizoctonia solani; test: Rice sheath blight; assay type: in vivo; design: scale not given here; settings: inoculated two days later, rated after 7 days, average of five plants; for Disease Control Rating at 0.5 mg/mL: foliage and soil sprayed with 0.5 mg/mL; for Disease Control Rating at 0.02 mg/mL: foliage and soil sprayed with 0.02 mg/mL; for Disease Control Rating at 0.1 mg/mL: foliage and soil sprayed with 0.1 mg/mL
How it was run: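 Preventive test: R. solani inoculum on rice grain was applied at the plant base two days after spraying foliage and soil with Compound A (0.5, 0.1 or 0.02 mg/mL, water/acetone/Tween 20). Plants aged 11–15 days stood in flood trays; after 7 days at 25 °C and high humidity, disease control was rated against untreated plants, five plants averaged.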

[2] = tested on: Botrytis cinerea; test: Vine grey mold (grape berries); assay type: in vivo; settings: average of six berries, 7-10 days; for pest or weed control at 50 ppm: grape berries treated with 50 ppm, read-out: % DISEASE CONTROL 50 ppm; for pest or weed control at 200 ppm: grape berries treated with 200 ppm, read-out: % DISEASE CONTROL 200 ppm
How it was run: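 Preventive berry test: compound at 50 or 200 ppm (acetone/water, 0.05% Tween 20) applied one day before inoculation with 10^6 spores/mL Botrytis conidia. After 7-10 days at 20 °C under 12 h light, infected surface area rated; disease control expressed as percent reduction from control mean; repeated-test values averaged.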

[3] = tested on: Botrytis cinerea; test: Eggplant grey mold; assay type: in vivo; design: scale not given here; settings: inoculated 24 h later, rated after 3-4 days; for Disease Control Rating at 20 ppm: eggplant sprayed with 20 ppm; for Disease Control Rating at 100 ppm: eggplant sprayed with 100 ppm; for Disease Control Rating at 500 ppm: eggplant sprayed with 500 ppm
How it was run: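 Protective test: compound formulations (2:3 acetone:water, 0.5% Tween 20; 500, 100 or 20 ppm) sprayed on 14-18-day-old plants, with spore inoculum (4×10^6 spore/mL) applied a day later. Disease control rated on Botrytis lesions after 3-4 days at 23 °C and 100% humidity.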

[4] = target: T1, succinate dehydrogenase (Botrytis cinerea, UniProt A0A384J5E4+A0A384J8V8+A0A384JHJ5); test: Enzyme inhibition: succinate dehydrogenase activity in Botrytis cinerea mitochondria (DCPIP reduction); assay type: biochemical; settings: concentration required to inhibit the rate of DCPIP reduction by 50%; Botrytis cinerea isolate Nick mitochondria; read-out: I50 (μM conc.)
T1 construct: succinate-DCPIP reductase assay with KCN
T1 sequence (A0A384J5E4 1-300): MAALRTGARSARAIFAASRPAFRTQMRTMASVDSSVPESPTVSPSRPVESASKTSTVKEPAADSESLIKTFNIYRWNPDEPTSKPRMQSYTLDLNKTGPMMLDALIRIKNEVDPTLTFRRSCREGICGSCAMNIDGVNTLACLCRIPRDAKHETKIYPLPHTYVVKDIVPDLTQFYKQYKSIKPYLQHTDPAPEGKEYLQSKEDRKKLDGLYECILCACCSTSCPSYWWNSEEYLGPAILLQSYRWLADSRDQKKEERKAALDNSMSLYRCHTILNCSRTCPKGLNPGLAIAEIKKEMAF
T1 sequence (A0A384J8V8 1-189): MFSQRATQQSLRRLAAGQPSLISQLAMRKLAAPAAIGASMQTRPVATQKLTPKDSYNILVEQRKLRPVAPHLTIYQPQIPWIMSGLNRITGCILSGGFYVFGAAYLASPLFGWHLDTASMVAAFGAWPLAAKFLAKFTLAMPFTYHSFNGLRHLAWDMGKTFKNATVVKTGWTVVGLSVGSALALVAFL
T1 sequence (A0A384JHJ5 1-192): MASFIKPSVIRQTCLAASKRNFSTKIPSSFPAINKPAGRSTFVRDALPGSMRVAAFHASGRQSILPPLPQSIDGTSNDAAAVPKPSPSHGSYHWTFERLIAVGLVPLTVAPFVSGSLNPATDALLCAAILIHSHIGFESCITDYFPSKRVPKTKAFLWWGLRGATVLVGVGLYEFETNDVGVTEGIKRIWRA
T1 sequence (A0A384K456 1-647 partner): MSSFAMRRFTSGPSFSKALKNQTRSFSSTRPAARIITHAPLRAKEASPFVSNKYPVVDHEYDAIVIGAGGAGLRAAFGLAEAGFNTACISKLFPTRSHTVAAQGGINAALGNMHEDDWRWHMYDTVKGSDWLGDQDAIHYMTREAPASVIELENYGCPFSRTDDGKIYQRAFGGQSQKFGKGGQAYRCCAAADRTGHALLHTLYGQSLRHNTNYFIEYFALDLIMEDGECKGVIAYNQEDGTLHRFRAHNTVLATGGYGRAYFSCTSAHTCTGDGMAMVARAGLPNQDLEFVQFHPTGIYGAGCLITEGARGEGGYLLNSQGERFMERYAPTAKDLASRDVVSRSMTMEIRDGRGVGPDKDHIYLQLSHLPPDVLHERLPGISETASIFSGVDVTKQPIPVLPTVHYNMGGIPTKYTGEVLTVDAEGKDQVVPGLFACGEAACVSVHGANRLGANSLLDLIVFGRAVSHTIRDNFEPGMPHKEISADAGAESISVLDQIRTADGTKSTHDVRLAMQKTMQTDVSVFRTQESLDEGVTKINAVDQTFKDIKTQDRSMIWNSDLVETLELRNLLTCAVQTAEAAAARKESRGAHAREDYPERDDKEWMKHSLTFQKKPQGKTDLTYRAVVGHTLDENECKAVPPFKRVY
How it was run: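 DCPIP (45 μM) reduction at 600 nm tracked with 17 mM succinate, 1 mM KCN and 50 mM potassium phosphate, pH 7.2. Compounds were added in acetone (final 1% v/v), and Botrytis cinerea isolate Nick mitochondrial fraction initiated the reaction. Rates minus endogenous activity gave percentage inhibition, plotted semilog against concentration to derive I50 (μM).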

Row | SMILES | Disease Control Rating at 0.5 mg/mL [1] | pest or weed control at 50 ppm [2] [%] | pest or weed control at 200 ppm [2] [%] | Disease Control Rating at 20 ppm [3] | Disease Control Rating at 100 ppm [3] | Disease Control Rating at 500 ppm [3] | IC50 [4] [µM] | Disease Control Rating at 0.02 mg/mL [1] | Disease Control Rating at 0.1 mg/mL [1]
1 | Cc1ccc(C2CCCCC2)c(NC(=O)c2cn(C)nc2C(F)F)c1 [Example 21, 1H-pyrazole-4-carboxamide, N-(2-cyclohexyl-5-methylphenyl)-3-(difluoromethyl)-1-methyl-] | 1 | 40 | 34 | 1 | 2 | 2 | 0.019 |  | 
2 | Cn1cc(C(=O)Nc2ccccc2OC2CCCCC2)c(C(F)F)n1 [Example 22, 1H-pyrazole-4-carboxamide, N-[2-(cyclohexyloxy)phenyl]-3-(difluoromethyl)-1-methyl-] | 0 | 24 | 22 |  |  | 0 | 0.0071 |  | 
3 | Cn1cc(C(=O)Nc2ccccc2OC2CCCCC2)c(C(F)(F)F)n1 [Example 23, 1H-pyrazole-4-carboxamide, N-[2-(cyclohexyloxy)phenyl]-1-methyl-3-(trifluoromethyl)-] | 3 | 20 | 66 |  |  | 0 | 0.01 | 1 | 2
4 | Cn1cc(C(=O)Nc2ccccc2C2CCCCCCC2)c(C(F)F)n1 [Example 24, 1H-pyrazole-4-carboxamide, N-(2-cyclooctylphenyl)-3-(difluoromethyl)-1-methyl-] | 3 | 87 | 100 | 1 | 2 | 2 | 0.0012 | 3 | 3
5 | Cn1cc(C(=O)Nc2ccccc2C2CCCCCCC2)c(C(F)(F)F)n1 [Example 25, 1H-pyrazole-4-carboxamide, N-(2-cyclooctylphenyl)-1-methyl-3-(trifluoromethyl)-] | 1 | 66 | 78 | 1 | 2 | 2 | 0.0011 |  | 
6 | Cc1ccc(NC(=O)c2cn(C)nc2C(F)F)c(C2CCCCC2)c1 [Example 28, 1H-pyrazole-4-carboxamide, N-(2-cyclohexyl-4-methylphenyl)-3-(difluoromethyl)-1-methyl-] | 0 | 37 | 77 | 0 | 1 | 2 | 0.01 |  | 
7 | Cc1ccc(NC(=O)c2cn(C)nc2C(F)(F)F)c(C2CCCCC2)c1 [Example 29, 1H-pyrazole-4-carboxamide, N-(2-cyclohexyl-4-methylphenyl)-1-methyl-3-(trifluoromethyl)-] | 0 | 0 | 54 |  |  | 0 | 0.036 |  | 
8 | Cc1nn(C)c(C)c1C(=O)Nc1ccccc1C1CCCCC1 [Example 30, 1H-pyrazole-4-carboxamide, N-(2-cyclohexylphenyl)-1,3,5-trimethyl-] | 3 | 75 | 59 | 0 | 2 | 2 | 0.34 | 2 | 3
9 | Cc1cc(C)c(C2CCCC2)c(NC(=O)c2cn(C)nc2C(F)(F)F)c1 [Example 31, 1H-pyrazole-4-carboxamide, N-(2-cyclopentyl-3,5-dimethylphenyl)-1-methyl-3-(trifluoromethyl)-] | 1 | 0 | 23 | 0 | 0 | 0 | 0.068 |  | 
10 | COc1ccc(C2CCCCC2)c(NC(=O)c2cn(C)nc2C(F)(F)F)c1 [Example 32, 1H-pyrazole-4-carboxamide, N-(2-cyclohexyl-5-methoxyphenyl)-1-methyl-3-(trifluoromethyl)-] | 0 | 6 | 5 | 0 | 1 | 2 | 0.11 |  | 
11 | CC(=C1CCCC1)c1ccccc1NC(=O)c1cn(C)nc1C(F)(F)F [Example 33, 1H-pyrazole-4-carboxamide, N-[2-(1-cyclopentylideneethyl)phenyl]-1-methyl-3-(trifluoromethyl)-] | 3 | 34 | 41 | 1 | 1 | 2 | 0.0014 | 1 | 1
12 | C=C(c1ccccc1NC(=O)c1cn(C)nc1C(F)(F)F)C1CCCC1 [Example 34, 1H-pyrazole-4-carboxamide, N-[2-(1-cyclopentylethenyl)phenyl]-1-methyl-3-(trifluoromethyl)-] | 3 | 44 | 11 | 0 | 2 | 2 | 0.0059 | 2 | 3
13 | Cn1cc(C(=O)Nc2ccccc2OC2(C)CCCC2)c(C(F)F)n1 [Example 35, 1H-pyrazole-4-carboxamide, 3-(difluoromethyl)-1-methyl-N-[2-(1-methylcyclopentyloxy)phenyl]-] | 3 | 42 | 46 | 2 | 3 | 3 | 0.012 | 2 | 3
14 | Cn1cc(C(=O)Nc2ccccc2OC2(C)CCCC2)c(C(F)(F)F)n1 [Example 36, 1H-pyrazole-4-carboxamide, 1-methyl-N-[2-(1-methylcyclopentyloxy)phenyl]-3-(trifluoromethyl)-] | 0 | 14 | 38 |  |  | 0 | 0.021 |  | 
